{"source": "paper PMC10799292", "about": "“The Role of β-Defensin 1 Against Porphyromonas gingivalis Lipopolysaccharide-Mediated Inflammation in the THP-1 Cell Line” (Cureus, 2023)", "assay_type_in_all_cases": "cell-based, human", "key": {"[1]": {"tested_on": "THP-1 cells", "assay": "Cell cycle distribution by flow cytometry", "details": "co-treated with β-defensin 1, Pg-LPS stimulated", "method": "Untreated control and Pg-LPS stimulated cells were also maintained. The MUSE Cell Cycle Kit was added, and the manufacturer's instructions were followed."}, "[2]": {"tested_on": "THP-1 differentiated macrophage cell line", "assay": "Cytotoxicity evaluation of β-defensin 1 by MTT method", "details": "24 h, 12.5-200 ng/mL", "method": "(§1) The THP-1 cell line was cultured in DMEM and supplemented with 10% FBS, sodium bicarbonate, L-glutamine, and an antibiotic solution containing penicillin (100 U/mL), amphotericin B (2.5 µg/mL), and streptomycin (100 µg/mL). The cells were maintained in a 5% humidified CO2 incubator (NBS Eppendorf, Germany) at 37°C. To induce differentiation into macrophages, the THP-1 cell line was treated with 25 ng/mL phorbol 12-myristate 13-acetate (PMA) (cat. 91585, Sigma-Aldrich, USA) and incubated for 48 hours. Following incubation, the cells were seeded in a 96-well culture plate at a density of 5x10^4 cells/well and incubated for 24 hours in a humidified 5% CO2 incubator at 37°C.\n(§2) Inverted phase contrast microscopy (IPCM) using an Olympus CKX41 microscope (Olympus, Japan) equipped with an Optika Pro5 CCD camera (Optika, Italy) was utilized to directly observe the cells. Cell viability was determined using the MTT (3-(4,5-Dimethylthiazol-2-yl)-2,5-diphenyltetrazolium bromide) assay (Sigma, M-5655). […] The absorbance of this colored solution can be quantified by measuring at approximately 570 nm using a spectrophotometer.\n(§3) The whole plate was analyzed under a microscope with an IPCM, and the results were photographed. […] The purple formazan crystals were dissolved in dimethyl sulfoxide (DMSO) and the absorbance (OD) was measured at 570 nm using a microplate reader. […]"}, "[3]": {"tested_on": "Pg-LPS stimulated THP-1 cells", "assay": "Cytotoxic evaluation of β-defensin 1 against Pg-LPS-treated THP-1 cells (MTT)", "details": "β-defensin 1 at 260.85 ng/mL, 24 h, triplicates", "method": "as §1, §2, §3"}, "[4]": {"tested_on": "MPO", "assay": "Myeloperoxidase (MPO) activity in lysate of Pg-LPS stimulated THP-1 cells", "details": "for MPO Enzyme activity Average / MPO Enzyme activity 1 / MPO Enzyme activity 2: Pg-LPS 1 µg/mL, 24 h; for MPO Enzyme activity Average: mean of duplicates; for MPO Enzyme activity 1: replicate 1; for MPO Enzyme activity 2: replicate 2", "method": "For inducing differentiation of THP-1 cells into macrophages, the cell line was premixed with 25 ng/mL PMA and incubated for 48 hours. After incubation, 5x10^4 cells were activated with Pg-LPS (LPS: 1 µg/mL) for one hour. Pg-LPS stimulated cells were exposed to different concentrations (6.25, 12.5, and 25 ng/mL) of β-defensin 1 and incubated for 24 hours. After incubation, the following anti-inflammatory assays were conducted utilizing the cell lysate.\nCell lysate was homogenized in hexadecyltrimethyl ammonium bromide (HTAB) and potassium phosphate buffer. The samples were centrifuged at 2000g for 30 minutes at 4°C and the activity of myeloperoxidase (MPO) enzyme was measured with the supernatant. MPO in the sample was stimulated by adding 50 mM phosphate buffer (pH 6) containing 1.67 mg/mL guaiacol and 0.0005% hydrogen peroxide. The absorbance change at […] was determined. The MPO activity (U) was shown as units per milliliter of cell lysate. At 25 °C, one unit of MPO activity corresponds to the degradation of 1µM peroxide per minute.\nwhere ΔOD is the density change, Vt is the total volume (mL) (1.1 mL ), L is the light path (1 cm), and £470 is the extinction coefficient for tetraguaiacol (26.6 mM^-1·cm^-1)."}}, "note": "No end group written: not given here."}
{"substance": "β-defensin 1: β-Defensin 1 peptide was purchased from ThermoFisher Scientific, USA; cationic antimicrobial peptide (DHYNCVSSGGQCLYSACPIFTKIQGTCYRGKAKCCK; ends and bridges not checked; cysteine pairing not given here; UniProt P60022 33-68, looked up)", "values": [{"measurement": "arrest in the G0/G1 phase (in words)", "setting": "[1]", "value": "reduced"}, {"measurement": "cytotoxicity (in words)", "setting": "[2]", "value": "dose-dependent cytotoxicity"}, {"measurement": "viability (in words)", "setting": "[3]; Pg-LPS (1 h) up to 1 µg/mL", "value": "increased the viability of THP-1 cells"}, {"measurement": "viability (in words)", "setting": "[3]; Pg-LPS beyond 1 µg/mL", "value": "decrease in viability"}, {"measurement": "MPO Enzyme activity Average", "setting": "[4]; 6.25 ng/mL", "value": 0.02795, "unit": "U/mL"}, {"measurement": "MPO Enzyme activity 1", "setting": "[4]; 6.25 ng/mL", "value": 0.0278, "unit": "U/mL"}, {"measurement": "MPO Enzyme activity 2", "setting": "[4]; 6.25 ng/mL", "value": 0.0281, "unit": "U/mL"}, {"measurement": "MPO Enzyme activity Average", "setting": "[4]; 12.5 ng/mL", "value": 0.021, "unit": "U/mL"}, {"measurement": "MPO Enzyme activity 1", "setting": "[4]; 12.5 ng/mL", "value": 0.0209, "unit": "U/mL"}, {"measurement": "MPO Enzyme activity 2", "setting": "[4]; 12.5 ng/mL", "value": 0.0211, "unit": "U/mL"}, {"measurement": "MPO Enzyme activity Average", "setting": "[4]; 25 ng/mL", "value": 0.01515, "unit": "U/mL"}, {"measurement": "MPO Enzyme activity 1", "setting": "[4]; 25 ng/mL", "value": 0.0152, "unit": "U/mL"}, {"measurement": "MPO Enzyme activity 2", "setting": "[4]; 25 ng/mL", "value": 0.0151, "unit": "U/mL"}, {"measurement": "MPO enzyme activity (in words)", "setting": "[4]; 6.25, 12.5, and 25 ng/mL, Pg-LPS stimulated", "value": "decreased in a concentration-dependent manner"}]}
